From patent publication US20180325909A1, “COMBINATION TREATMENT OF SPECIFIC FORMS OF EPILEPSY” (ZOGENIX INTERNATIONAL LIMITED, priority 2015, published 2018)
Entries after “also recorded” stand apart in the source; their conditions may differ. Where two headings read alike, the source gives them in different places.

Key:
[1] = system: homozygous scn1Lab−/− mutants; format: in vivo, Danio rerio; conditions: for activity in the Zebrafish model of epilepsy: following both acute and chronic application; for locomotor-reducing activity of functional analogs: at MTC, in most cases observed after short and long treatment
Method: (§1) Zebrafish embryos (Danio rerio) heterozygous for the scn1Lab mutation (scn1Lab+/−) were backcrossed with Tupfel longfin wildtype (WT scn1Lab+/+). Adult zebrafish were housed at 28.0° C., on a 14/10 hour light/dark cycle under standard aquaculture conditions. Fertilized eggs were collected via natural spawning. Anaesthetized fish (tricaine 0.02%) were fin-clipped and genotyped by PCR. After genotyping, samples were purified (MinElute PCR Purification Kit) and sequenced by LGC Genomics. Age-matched Tupfel longfin wildtype larvae were used as control group (WT scn1Lab+/+).
(§2) To evaluate the locomotor activity of homozygous scn1Lab−/− mutants and control WT scn1Lab+/+, zebrafish larvae were placed in a 96-well plate in 100 μL of embryo medium from 4 to 8 dpf. Each day the larvae were tracked in an automated tracking device (ZebraBox™ apparatus; Viewpoint, Lyon, France) for 10 min after 30 min habituation (100-second integration interval). All recordings were performed at the same time during daytime period. The total distance in large movements was recorded and quantified using ZebraLab™ software (Viewpoint, Lyon, France). Data were pooled together from at least three independent experiments with at least 24 larvae per condition.
(§3) Scn1Lab−/− mutants and WT scn1Lab+/+ larvae were arrayed in the same plate and treated at 6 days post fertilization (dpf) with fenfluramine (25 μM), functional analogs (at their MTC) or VHC in individual wells of a 96-well plate. After incubation at 28° C. on a 14/10 hour light/dark cycle and 30-min chamber habituation 6 and 7 dpf larvae were tracked for locomotor activity for 10 min (100-second integration interval) under dark conditions. An incubation time of 1.5 hours is further referred as short treatment (6 dpf). Furthermore these larvae were analyzed after more than 22 hours incubation (7 dpf), i.e. long treatment. The total locomotor activity was quantified using the parameter lardist and plotted in cm. Data were pooled together from two (5-HT1B-, 5-HT1F-, 5-HT3-, 5-HT4-, 5-HT5A-, 5-HT6-agonist and all antagonists except 5-HT1B- and 5-HT7-antagonists) or three (fenfluramine, 5-HT1A-, 5-HT1D-, 5-HT1E-, 5-HT2A-, 5-HT2B-, and 5-HT2C-agonist) independent experiments with at least 9 larvae per treatment condition.

[2] = system: WT scn1Lab+/+ larvae; assay: Locomotor activity of age-matched wildtype zebrafish larvae; format: in vivo, Danio rerio; conditions: 'with exception of' means the compound did decrease wildtype activity
Method: as §1, §2
as §3, with “Data were pooled together from two (5-HT1B-, 5-HT1F-, 5-HT3-, 5-HT4-, 5-HT5A-, 5-HT6-agonist and all antagonists except 5-HT1B- and 5-HT7-antagonists) or three (fenfluramine, 5-HT1A-, 5-HT1D-, 5-HT1E-, 5-HT2A-, 5-HT2B-, and 5-HT2C-agonist) independent experiments with at least 9 larvae per treatment condition.” left out

[3] = system: homozygous scn1Lab−/− mutants; format: in vivo, Danio rerio; conditions: for reduction of epileptiform activity (in words, compared with fenfluramine): long treatment at MTC (5-HT2B-agonist 3.125 μM), at least frequency and mean cumulative duration
Method: Epileptiform activity was measured by open-field recordings in the zebrafish larval forebrain at 7 dpf. Homozygous scn1Lab−/− mutants and control WT scn1Lab+/+ were embedded in 2% low-melting-point agarose (Invitrogen) to position a glass electrode into the forebrain. […] Single recordings were performed for 10 min. […] Spontaneous epileptiform events were taken into account when the amplitude exceeded three times the background noise and lasted longer than 50 milliseconds (ms).
Epileptiform activity was measured by open-field recordings in the zebrafish larval forebrain at 7 dpf, as described above. […] Recordings of 7 dpf larvae, from at least 8 scn1Lab−/− mutant larvae were taken per experimental condition. […] Electrographic recordings were quantified for the different treatment conditions.

[4] = system: Dravet syndrome patients; conditions: Chiron et al. 2011; cited from earlier work
[5] = system: Dravet syndrome patients; conditions: long term treatment with fenfluramine 0.12-0.90 mg/kg/day; Ceulemans et al. 2012; cited from earlier work
[6] = target: T1, 5-HT2C receptor (Homo sapiens, UniProt P28335); conditions: cited from earlier work
T1 sequence (P28335 33-458): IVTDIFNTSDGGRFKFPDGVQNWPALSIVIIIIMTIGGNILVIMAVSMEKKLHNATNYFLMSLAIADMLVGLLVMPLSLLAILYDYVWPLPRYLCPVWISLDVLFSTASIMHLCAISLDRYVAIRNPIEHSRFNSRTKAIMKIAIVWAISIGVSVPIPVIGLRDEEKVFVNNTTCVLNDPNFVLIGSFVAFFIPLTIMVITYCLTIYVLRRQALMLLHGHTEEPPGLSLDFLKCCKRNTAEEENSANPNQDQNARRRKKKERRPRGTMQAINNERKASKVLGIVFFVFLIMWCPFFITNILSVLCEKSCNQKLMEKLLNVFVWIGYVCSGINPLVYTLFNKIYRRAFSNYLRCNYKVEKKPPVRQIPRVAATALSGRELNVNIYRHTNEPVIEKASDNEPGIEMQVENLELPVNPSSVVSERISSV

[7] = system: scn1Lab−/− larvae; assay: Fenfluramine combined with 5-HT subtype antagonists, locomotor activity of scn1Lab-/- larvae; format: in vivo, Danio rerio; conditions: antagonist plus fenfluramine
Method: as §3
No highly specific 5-HT1E-antagonist is currently available so it was impossible to explore this 5-HTsubtype receptor in the current assay (Leung, 2009).

[8] = long treatment, fenfluramine 25 μM, 7 dpf

SMILES: CC(N)Cc1c[nH]c2ccc(OCc3cccs3)cc12 (centres unmarked) [5-HT2B agonist]
- activity in the Zebrafish model of epilepsy [1]: did not show any activity

SMILES: COc1ccc(CNC(=O)/C=C/c2ccc3[nH]cc(CCN(C)C)c3c2)cc1 [5-HT1D-agonist, 3-[3-(2-Dimethylaminoethyl)-1H-indol-5-yl]-N-(4-methoxybenzyl)acrylamide]
- locomotor-reducing activity of functional analogs [1]: locomotor-reducing activity
- activity in the Zebrafish model of epilepsy [1]: high levels of activity
- locomotor activity in wildtype larvae [2]: did not decrease the locomotor activity
- reduction of epileptiform activity (in words, compared with fenfluramine) ([3]; 7 dpf): comparable effects

SMILES: O=C1Nc2ccc(Cl)cc2[C@@](C#CC2CC2)(C(F)(F)F)O1 [efavirenz, (4S)-6-chloro-4-(2-cyclopropylethynyl)-4-(trifluoromethyl)-1H-3,1-benzoxazin-2-one]
- inhibition of locomotor activity in mutant fish embryos (Example 2) ([1]; tested at MTC): potent inhibitors
- inhibition of epileptiform activity in mutant fish embryos (Example 2) ([3]; tested at MTC): potent inhibitors

SMILES: C=CC(N)CCC(=O)O (centres unmarked) [vigabatrin]
- patients with worsening of symptoms [4]: ~60%

SMILES: Nc1nnc(-c2cccc(Cl)c2Cl)c(N)n1 [lamotrigine]
- patients with worsening of symptoms [4]: up to 80%

SMILES: CN1CCC(c2c[nH]c3ccc(O)cc23)CC1 [5-HT1E-agonist, 1H-Indol-5-ol, 3-(1-methyl-4-piperidinyl)-]
- locomotor-reducing activity of functional analogs [1]: locomotor-reducing activity
- locomotor activity in wildtype larvae [2]: did not decrease the locomotor activity
- reduction of epileptiform activity (in words, compared with fenfluramine) ([3]; 7 dpf): not able to reduce epileptiform activity

SMILES: CN1C[C@H](C(=O)N[C@]2(C)O[C@@]3(O)[C@@H]4CCCN4C(=O)[C@H](Cc4ccccc4)N3C2=O)C=C2c3cccc4[nH]cc(c34)C[C@H]21 [ergotamine, (6aR,9R)—N-((2R,5S,10aS,10bS)-5-benzyl-10b-hydroxy-2-methyl-3,6-dioxooctahydro-2H-oxazolo[3,2-a]pyrrolo[2,1-c]pyrazin-2-yl)-7-methyl-4,6,6a,7,8,9-hexahydroindolo[4,3-fg] quinoline-9-carboxamide]
- locomotor-reducing activity of functional analogs [1]: interesting activity
- locomotor-reducing activity of functional analogs ([1]; listed as 5-HT5A-agonist): locomotor-reducing activity
- activity in the Zebrafish model of epilepsy [1]: high levels of activity
- locomotor activity in wildtype larvae [2]: did not decrease the locomotor activity

SMILES: CCNC(C)Cc1cccc(C(F)(F)F)c1 (centres unmarked) [fenfluramine]
- activity in the Zebrafish model of epilepsy [1]: high levels of activity
- locomotor activity after long treatment ([1]; long treatment (22 h), fenfluramine 25 μM, 7 dpf, p<0.0001): lowers locomotor activity; also recorded: significantly decreased
- reduction of epileptiform activity (in words, compared with fenfluramine) ([3]; 7 dpf): anti-epileptiform activity
- frequency of epileptiform events [3, 8]: 1.7±0.4046 events/10-min recording
- mean cumulative duration of epileptiform events [3, 8]: 200.8±50.38 ms/10-min recording
- mean duration of epileptiform events [3, 8]: 85.11±18.28 ms/10-min recording
- patients seizure-free [5]: 70%

SMILES: C[C@H]1CNCCc2ccc(Cl)cc21.Cl [lorcaserin, (1R)-8-chloro-1-methyl-2,3,4,5-tetrahydro-1H-3-benzazepine]
- locomotor-reducing activity of functional analogs [1]: locomotor-reducing activity
- activity in the Zebrafish model of epilepsy [1]: high levels of activity
- reduction of epileptiform activity (in words, compared with fenfluramine) ([3]; 7 dpf): comparable effects
- affinity for the 5-HT2C receptor vs. the 5-HT2B [6]: 100 ×

SMILES: NC(=O)N1c2ccccc2C=Cc2ccccc21 [carbamazepine]
- patients with worsening of symptoms [4]: ~60%

SMILES: O=C(c1ccc(F)cc1)C1CCN(CCn2c(=O)[nH]c3ccccc3c2=O)CC1 [5-HT2A-antagonist, ketaserine]
- counteraction of the fenfluramine-elicited decrease in locomotor activity, long treatment ([7]; long treatment, p<0.05): not after a long treatment
- effect of antagonist on the fenfluramine-elicited decrease in large movements ([7]; treatment time not stated): not seen

SMILES: Cc1nn(C)c(C)c1-c1cccc2c1CC[C@H](N(C)C)C2 [5-HT7-agonist, (2S)-(+)-5-(1,3,5-Trimethylpyrazol-4-yl)-2-(dimethylamino)tetralin]
- locomotor-reducing activity of functional analogs [1]: locomotor-reducing activity
- activity in the Zebrafish model of epilepsy [1]: high levels of activity
